Source: patent US10385055B2, “Tricyclic gyrase inhibitors” (Merck Sharp & Dohme Corp., priority 2013, dated 2019)
≈ marks a conversion by molar mass, not a printed value. Where “and” joins values, the source holds several entries; their conditions need not be identical. Identical values can stand only once.

Assays:
K. pneumoniae = test: Anti-bacterial efficacy (MIC), K. pneumoniae; type: cell-based; conditions: for MIC Kpn: Table 2; for MIC: Klebsiella pneumoniae, Table 3
hERG = molecular target: T1, hERG (Homo sapiens, UniProt Q12809); test: hERG inhibition, Cerep automated patch-clamp assay in Chinese Hamster Ovary K1 cells; type: cell-based; conditions: CHO K1 cells, tail current, read-out: hREG IC50
T1 construct: host or cells: Chinese Hamster Ovary K1 cells
Description: A Cerep automated patch-clamp assay using Chinese Hamster Ovary K1 cells was used to measure hERG IC50 values. The degree of inhibition (%) was obtained by measuring the tail current amplitude, which is induced by a one second test pulse to −40 mV after a two second pulse to +20 mV, before and after drug incubation (the difference in current was normalized to control and multiplied by 100 to obtain the percent inhibition).
Concentration (log) response curves were fitted to a logistic equation (three parameters assuming complete block of the current at very high test compound concentrations) to generate estimates of the 50% inhibitory convcentration (IC50). The concentration-response relationship of each compound was constructed from the percentage reductions of current amplitude by sequential concentrations. The MIC and hERG IC50 values are provided in Table 2 below for the compounds tested.

E. coli = test: Anti-bacterial efficacy (MIC), E. coli; type: cell-based; conditions: for MIC Ec: Table 2; for MIC: Escherichia coli, Table 3
P. aeruginosa = test: Anti-bacterial efficacy (MIC), P. aeruginosa; type: cell-based; conditions: for MIC Pa: Table 2; for MIC: Pseudomonas aeruginosa, Table 3
A. baumannii = test: Anti-bacterial efficacy (MIC), A. baumannii; type: cell-based; conditions: for MIC Ab: Table 2; for MIC: Acinetobacter baumannii, Table 3
S. aureus = test: Anti-bacterial efficacy (MIC), S. aureus; type: cell-based; conditions: for MIC Sa: Table 2; for MIC: Staphylococcus aureus, Table 3
[1] = In vivo mouse PK, oral bioavailability; conditions: plasma, AUC oral / AUC intravenous, read-out: Mouse % F
Description: Typical protocol is a single dose intravenous and oral (gavage) administration with blood collection from each animal by cardiac puncture at selected (6 to 8) time points (n=3 mice per time point) into a tube containing an appropriate anticoagulant. The blood is centrifuged and the resulting plasma removed for subsequent analysis. After proper sample preparation, the plasma concentrations of a test compound are determined by LC-MS/MS and the pharmacokinctics (namely, area-under-curve or AUC) of the concentration-time profile from oral administration is compared with the corresponding pharmacokinetics from intravenous administration. […] In addition, Caco values are shown.

Caco-2 cell monolayer = Caco-2 cell monolayer permeability; type: in vitro ADME, human; conditions: Caco-2 monolayer permeability
Excerpt: Oral bioavailability can be assessed by various methods such as measuring the Caco-2 cell monolayer permeability, and measuring pharmacokinetic properties by calculating the ratio of the AUC from oral administration to the AUC from intravenous administration. Both methods are used to assess compounds here as illustrated in Examples 8-9. In some aspects, compounds herein show the highest membrane (Caco-2 cell monolayer) permeability among all the compounds tested. The Caco-2 cell line is a continuous cell of heterogeneous human epithelial colorectal adenocarcinoma cells that when cultured under specific conditions the cells become differentiated and polarized such that their phenotype, morphologically and functionally, resembles the enterocytes lining the small intestine. Thus, the Caco-2 monolayer is widely used across the pharmaceutical industry as an in vitro model of the human small intestinal mucosa to predict the absorption of orally-administered drugs.
Caco-2 human colon carcinoma cell line (Caco-2) was used as a model system for intestinal epithelial permeability. There is similarity in uptake and barrier properties between this cell system and the small intestinal epithelial layer. See., Hidalgo I J, et al., Gastroenterology. 1989 March; 96(3):736-49. Characterization of the human colon carcinoma cell line (Caco-2) as a model system for intestinal epithelial permeability.

Dog oral bioavailability = conditions: in vivo, read-out: Dog % F

T1 sequence (Q12809 whole entry): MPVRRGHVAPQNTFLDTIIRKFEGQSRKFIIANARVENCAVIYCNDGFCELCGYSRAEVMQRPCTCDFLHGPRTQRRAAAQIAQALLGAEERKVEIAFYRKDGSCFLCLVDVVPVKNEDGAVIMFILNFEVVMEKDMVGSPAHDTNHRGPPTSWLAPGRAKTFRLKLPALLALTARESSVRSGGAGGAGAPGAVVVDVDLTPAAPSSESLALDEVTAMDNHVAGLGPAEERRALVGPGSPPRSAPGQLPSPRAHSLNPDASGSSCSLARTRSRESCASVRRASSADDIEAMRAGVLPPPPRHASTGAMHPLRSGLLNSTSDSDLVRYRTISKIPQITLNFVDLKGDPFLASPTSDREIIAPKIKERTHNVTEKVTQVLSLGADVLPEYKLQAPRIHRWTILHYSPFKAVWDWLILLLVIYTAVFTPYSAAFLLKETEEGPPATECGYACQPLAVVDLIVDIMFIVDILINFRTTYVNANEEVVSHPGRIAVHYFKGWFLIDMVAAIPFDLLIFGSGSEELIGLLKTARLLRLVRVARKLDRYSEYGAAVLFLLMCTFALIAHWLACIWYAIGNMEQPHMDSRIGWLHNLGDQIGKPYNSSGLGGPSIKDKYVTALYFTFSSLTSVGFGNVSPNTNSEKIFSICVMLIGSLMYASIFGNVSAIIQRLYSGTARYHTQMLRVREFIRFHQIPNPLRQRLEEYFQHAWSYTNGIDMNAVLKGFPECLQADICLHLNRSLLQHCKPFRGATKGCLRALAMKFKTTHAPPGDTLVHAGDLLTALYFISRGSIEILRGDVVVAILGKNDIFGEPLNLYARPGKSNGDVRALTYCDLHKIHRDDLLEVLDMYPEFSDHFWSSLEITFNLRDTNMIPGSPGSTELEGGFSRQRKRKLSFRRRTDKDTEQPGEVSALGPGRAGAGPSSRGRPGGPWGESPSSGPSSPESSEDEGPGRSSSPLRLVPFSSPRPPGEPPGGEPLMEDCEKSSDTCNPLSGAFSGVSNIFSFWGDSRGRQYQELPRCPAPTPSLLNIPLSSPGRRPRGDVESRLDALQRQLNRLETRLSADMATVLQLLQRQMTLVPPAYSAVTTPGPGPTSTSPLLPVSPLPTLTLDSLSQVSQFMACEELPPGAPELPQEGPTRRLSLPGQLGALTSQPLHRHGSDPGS

Row | SMILES | MIC Kpn (K. pneumoniae) | IC50 (hERG) | MIC Ec (E. coli) | MIC Pa (P. aeruginosa) | MIC Ab (A. baumannii) | MIC Sa (S. aureus) | MIC (K. pneumoniae) | MIC (E. coli) | bioavailability [1] | Caco (Caco-2 cell monolayer) | MIC (P. aeruginosa) | MIC (A. baumannii) | MIC (S. aureus) | bioavailability (Dog oral bioavailability)
1 | CNc1cc(F)cc2c1[nH]c1nc(Oc3cnc(C)nc3)nc(N3CC4(CCC4N)C3)c12 (stereo not shown) | 2 µg/mL (≈ 4.6 µM) | 16 µM | 0.25 µg/mL (≈ 0.575 µM) | 1 µg/mL (≈ 2.3 µM) | 0.5 µg/mL (≈ 1.15 µM) | ≤0.016 µg/mL | – | – | – | – | – | – | – | –
2 | CNc1cc(F)cc2c1[nH]c1nc(Oc3cnc(C)nc3)nc(N3CC4(CCC4O)C3)c12 (stereo not shown) | 4 µg/mL (≈ 9.19 µM) | 100 µM | 1 µg/mL (≈ 2.3 µM) | >16 µg/mL | 4 µg/mL (≈ 9.19 µM) | ≤0.016 µg/mL | – | – | – | – | – | – | – | –
3 | CNc1cc(F)cc2c1[nH]c1nc(Oc3cnc(C)nc3)nc(N3CC4CC3CC4N)c12 (stereo not shown) | 2 µg/mL (≈ 4.6 µM) | 4 µM | 0.13 µg/mL (≈ 0.299 µM) | 1 µg/mL (≈ 2.3 µM) | 0.5 µg/mL (≈ 1.15 µM) | ≤0.016 µg/mL | – | – | – | – | – | – | – | –
4 | CNc1cc(F)cc2c1[nH]c1nc(Oc3cnc(C)nc3)nc(N3CC4CC3CC4O)c12 (stereo not shown) | 8 µg/mL (≈ 18.4 µM) | 71 µM | 1 µg/mL (≈ 2.3 µM) | >16 µg/mL | 4 µg/mL (≈ 9.19 µM) | ≤0.016 µg/mL | – | – | – | – | – | – | – | –
5 | CNc1cc(F)cc2c1[nH]c1nc(Oc3cnc(C)nc3)nc(N3CC4CC(N)C4C3)c12 (stereo not shown) | 2 µg/mL (≈ 4.6 µM) | 1 µM | 0.25 µg/mL (≈ 0.575 µM) | 1 µg/mL (≈ 2.3 µM) | 0.25 µg/mL (≈ 0.575 µM) | ≤0.016 µg/mL | – | – | – | – | – | – | – | –
6 | CNc1cc(F)cc2c1[nH]c1nc(Oc3cnc(C)nc3)nc(N3CC4CC(O)C4C3)c12 (stereo not shown) | 1 µg/mL (≈ 2.3 µM) | 20 µM | 0.13 µg/mL (≈ 0.299 µM) | 16 µg/mL (≈ 36.7 µM) | 0.5 µg/mL (≈ 1.15 µM) | ≤0.016 µg/mL | – | – | – | – | – | – | – | –
7 | CNc1cc(F)cc2c1[nH]c1nc(Oc3cnc(C)nc3)nc(N3CC4C(N)C4C3)c12 (stereo not shown) | 2 µg/mL (≈ 4.76 µM) | 9.5 µM | 0.13 µg/mL (≈ 0.309 µM) | 4 µg/mL (≈ 9.51 µM) | 0.25 µg/mL (≈ 0.595 µM) | ≤0.016 µg/mL | – | – | – | – | – | – | – | –
8 | CNc1cc(F)cc2c1[nH]c1nc(Oc3cnc(C)nc3)nc(N3CC4C(O)C4C3)c12 (stereo not shown) | 1 µg/mL (≈ 2.37 µM) | 41 µM | 0.25 µg/mL (≈ 0.593 µM) | >16 µg/mL | 0.5 µg/mL (≈ 1.19 µM) | ≤0.016 µg/mL | – | – | – | – | – | – | – | –
9 | CNc1cc(F)c(F)c2c1[nH]c1nc(Oc3cnc([C@H](C)O)nc3)nc(N3C[C@H]4CC3C[C@H]4N)c12 [1.1] | – | – | – | – | – | – | 1 µg/mL (≈ 2.07 µM) | 0.25 µg/mL (≈ 0.518 µM) | < 2% | <0.1 10^−8 cm/s | 2 µg/mL (≈ 4.15 µM) | 4 µg/mL (≈ 8.29 µM) | ≤ 0.016 µg/mL | –
10 | CNc1cc(F)c(F)c2c1[nH]c1nc(Oc3cnc([C@H](C)O)nc3)nc(N3CC4(CCC4N)C3)c12 (stereo partly shown) [1.2] | – | – | – | – | – | – | 1 µg/mL (≈ 2.07 µM) | 0.13 µg/mL (≈ 0.269 µM) | < 2% | – | 1 µg/mL (≈ 2.07 µM) | 2 µg/mL (≈ 4.15 µM) | ≤ 0.016 µg/mL | –
11 | CNc1cc(F)cc2c1[nH]c1nc(Oc3cnc(C)nc3)nc(N3C[C@H]4C[C@@H](O)[C@H]4C3)c12 [1.3] | – | – | – | – | – | – | 0.5 µg/mL (≈ 1.15 µM) | 0.13 µg/mL (≈ 0.299 µM) | 25% | 5.5 10^−8 cm/s and 6.3 10^−8 cm/s | 16 µg/mL (≈ 36.7 µM) | 1 µg/mL (≈ 2.3 µM) | ≤ 0.016 µg/mL | 50%
12 | CNc1cc(F)cc2c1[nH]c1nc(Oc3cnc(C)nc3)nc(N3C[C@@H]4[C@@H](O)[C@@H]4C3)c12 [1.4] | – | – | – | – | – | – | 1 µg/mL (≈ 2.37 µM) | 0.5 µg/mL (≈ 1.19 µM) | 15% | 7.5 10^−8 cm/s | > 16 µg/mL | 2 µg/mL (≈ 4.75 µM) | ≤ 0.016 µg/mL | –
